From patent US20250339409A1, “USES OF PAN BET INHIBITORS” (VYNE THERAPEUTICS INC., priority 2021, published 2025)
Read-outs that look alike come from different tables or passages of the source.

Tests used:
[1] = tested on: CXCL10, IL17α, IL22, IL36γ, CCL20, SerpinB4 gene expression in Th17 stimulated human skin; assay: Th17 stimulated human skin explants, RT-qPCR of biomarkers; type: cell-based; settings: for inhibition at 10 µM: Homo sapiens, calculated to Th17 stimulated control, three skin donors
Text: Human skin biopsy tissue was stimulated to induce a Th17 immuno-phenotype using a method derived from Feghali-Bostwick et al. Induction of a Th17 phenotype in human skin—a mimic of dermal inflammatory diseases, Methods and Protocols, 2, 45 (2019). The pharmacodynamic assay described therein involves a similar paradigm to elicit a Th2 response and is used to evaluate the therapeutic potential of the active compounds (e.g., BETi1; and
Freshly excised healthy human skin tissue from abdominoplasties is defatted, cleaned and sectioned into 7 mm biopsies. The biopsies are placed in Transwell® inserts with the epidermis apical and exposed to air and the dermis submerged in media in the basal chamber. The biopsies are pre-treated overnight at 37° C., 5% CO2 with different compounds and controls added to the media in the basal chamber.
The next day, contents of the basal chamber is replaced with fresh media containing the test compound (listed below) and a stimulation cocktail for either Th2 inflammation (proprietary of service provider cocktail) or Th17 inflammation (mix of antibodies against CD3, CD28, IL-4, IFNγ and recombinant IL-1β, IL-6, IL-21, TGF-β). The biopsies are incubated at 37° C., 5% CO2 for a further 24 hrs.
A list of all the treatments is provided below: • 1. Untreated control (for both stimulations) • 2. Th2 stimulated control • 3. Th17 stimulated control • 4. Th2+BETia at 0.01, 0.04, 0.16, 0.63, 2.50, and 10 μM • 5. Th2+BETi1 at 0.01, 0.04, 0.16, 0.63, 2.50, and 10 μM • 6. Th2+Ruxolitinib at 0.01, 0.04, 0.16, 0.63, 2.50, and 10 μM • 7. Th2+betamethasone valerate 210 μM (equivalent to 0.01%) • 8. Th17+BETia at 10 μM • 9. Th17+BETi1 at 10 μM • 10. Th17+Ruxolitinib at 10 μM • 11. Th17+betamethasone valerate 210 μM (equivalent to 0.01%)
After harvesting, the biopsies are cut in half, and one half is homogenized and used for RNA extraction by standard methods and inflammatory pathways is assessed by RT-qPCR. The ability of BETi1 or BETia to inhibit the activity of up to six biomarkers per stimulation is reported as percent activity calculated to stimulated control and fold change in gene expression calculated to untreated control with respect to Th2 (IL4, IL13, IL31, CCL17, CCL26, CCL2) and Th17 (CXCL10, IL17α, IL22, IL36γ, CCL20, SerpinB4). Statistical analysis is performed on data sets from all 3 donors combined and compares the percent inhibition of each biomarker by each treatment calculated to its respective vehicle.
qPCR values were calculated using the relative quantification approach outlined by Livak, et al (2001) (Section 9, Reference 2). The Ct values (threshold cycle) defined as the fractional cycle number at which the amount of amplified target reaches a fixed threshold, were normalised to the Ct value of an internal biomarker or ‘housekeeping gene’ (GAPDH). The higher limit of detection was set at a Ct value of 40, and any target having not reached Ct by 40 cycles was set to this value. The delta Ct values (dt(Ct)) refers to the Ct of the gene of interest minus the Ct of the internal biomarker. The ddt(Ct) is the dt(Ct) value of the gene minus the average dt(Ct) value of the untreated samples. The ddt(Ct) is converted to power by the equation; =power(2,dt(Ct)). Fold change was calculated as ratio of the power of the gene of interest divided by the average power of the untreated samples. This normalizes the untreated samplers to a value of 1. For the comparison of multiple skin donors, the stimulated samples were normalized to 100% maximum activity (such to normalize variability between different skin donors). Percent activity was calculated as the percent increase or decrease in stimulation compared to the stimulated samples set at 100% maximum activity. Percent change was calculated as: Inhibition=(100−(avg % activity/stimulated)*100). Statistical analysis was performed using One-way ANOVA with Dunnett's Multiple Comparisons (non parametric). […]

[2] = tested on: bleomycin induced pulmonary fibrosis; assay: Bleomycin mice: lung histopathology (H & E, Masson's Trichrome), Hübner-modified Ashcroft score; type: in vivo, C57BL/6 male mice; settings: for mean score, Hübner-modified Ashcroft scale of 0-8: bleomycin
Text: Seven mice from each group are randomly submitted for histopathology analysis (Hematoxylin and eosin (H & E) and Masson's Trichrome (MT)). The lungs are trimmed as needed and processed overnight in a Citadel 1000 automated processor by Shandon Scientific. Post-processing, lungs are embedded in paraffin blocks and sectioned in the following fashion: several slides are generated with lung sections in the first 1 mm of tissue, middle portions of the tissue, and finally near the latter third of the tissue in order to glean histological alterations throughout the lung. Sections are cut at […] thickness with a rotary microtome. Several slides per lung (at each depth) are stained with a H & E stain (reagents from Fisher Scientific) and MT Stain (Sigma kit HT15).
Pathological alterations are evaluated by a pathologist in blind manner (both dosage and treatment programs are unknown to the pathologist). The subacute interstitial inflammation and Agonal Hemorrhage are evaluated mainly based on the H & E staining. Fibrotic modifications are assessed morphologically and semi-quantitatively graded according to the scale defined by Ashcroft and modified by Hübner. Three sections for each lung sample are stained with MT and scored on a scale of 0-8. The final score is expressed as a mean of individual scores observed across all microscopic fields. In order to quantify the distribution of pulmonary fibrosis, the Ashcroft scores are graded in 3 general classes of increasing values: ranging from 0-3 (mild), 4 (moderate) and ≥5 (severe).
Three sections for each lung sample were stained with H & E and Masson's Trichrome and scored on a Hübner-modified Ashcroft scale of 0-8. Three pictorial representations for each of groups 1-5 are shown in FIGS. 19A-E respectively (100×) and one representation for each of groups 1-5 is shown in FIGS. 19F-J (40×). Histology provides a picture or snapshot of the absence or presence of fibrosis. […] Other groups with higher concentrations of BETi also appeared to lessen bleomycin induced fibrosis but to a lesser degree.

`Cn1cc(-c2cccc(O)c2Oc2ccccc2)c2cc[nH]c2c1=O` [BETi1] was tested, and the inhibition at 10 µM ([1]; read-out: % inhibition CXCL10) was 95%, the inhibition at 10 µM ([1]; read-out: % inhibition IL17α) was 99.5% and the inhibition at 10 µM ([1]; read-out: % inhibition IL36γ) was 95%. For the same compound, the “inhibition of IL-17, IL-36 and CXCL10 release relative to vehicle control” value ([1]; Th17-stimulated human skin tissue) was “greater than 95%”, the “Mean Histology Score (Hubner-modified Ashcroft)” value (from here on “Mean Histology Score”) ([2]; Group 3 Bleo/BETi1 0.06 mg/mL) was 3.00 and the “Mean Histology Score” value ([2]; Group 4 Bleo/BETi1 0.6 mg/mL) was 4.64. For the same compound, the “Mean Histology Score” value ([2]; Group 5 Bleo/BETi1 3 mg/mL) was 5.52, the “mean score, Hübner-modified Ashcroft scale of 0-8” value (shortened to “mean score”) ([2]; 0.06 mg/mL) was 3.00 and the “mean score” value ([2]; 0.6 mg/mL) was 4.64. The “mean score” value ([2]; 3 mg/mL) was 5.52.
